Measured values reported in ChEMBL document CHEMBL4680162, “Synthesis and pharmacological evaluation of chlorin derivatives for photodynamic therapy of cholangiocarcinoma” (Eur J Med Chem, 2020).
Active and inactive are the calls of the source. The rule behind the calls is not given here.

Key:
[1] = Drug uptake in nude mouse xenografted with QBC939 cells assessed as drug level in tumor tissue at 1 mg/kg, iv measured after 8 hrs by fluorescence imaging assay; type: ADME, organism-based, Neoplasm; conditions: in vivo
[2] = Induction of apoptosis in human QBC939 cells assessed as necrotic cells at 2 uM by annexin V-FITC and propidium iodide staining based flow cytometric analysis; type: functional
[3] = Induction of apoptosis in human QBC939 cells assessed as late apoptotic cells at 2 uM in presence of 2J/cm2 light irradiation measured after 24 hrs by annexin V-FITC and propidium iodide staining based flow cytometric analysis (reference value: 0.01 %); type: functional
[4] = Photodynamic antitumor activity against human QBC939 cells xenografted in BALB/c nude mouse assessed as tumor weight at 1 mg/kg, iv followed by laser light irradiation at 120 J/cm2 measured after 13 days; type: functional; conditions: time 13 day
[5] = Induction of apoptosis in human QBC939 cells assessed as late apoptotic cells at 2 uM in presence of 2J/cm2 light irradiation measured after 2 hrs by annexin V-FITC and propidium iodide staining based flow cytometric analysis (reference value: 0.01 %); type: functional
[6] = Absorption property of the compound in DMSO assessed as Q band maximum absorption wavelength by UV-visible spectrophotometric method; type: physicochemical
[7] = Induction of apoptosis in human QBC939 cells assessed as early apoptotic cells at 2 uM in presence of 2J/cm2 light irradiation measured after 2 hrs by annexin V-FITC and propidium iodide staining based flow cytometric analysis (reference value: 0.01 %); type: functional
[8] = Phototoxicity in BALB/c nude mouse xenografted with QBC939 cells assessed as change in liver at 1 mg/kg, iv followed by laser light irradiation at 120 J/cm2 measured after 1 day of light irradiation by H and E staining based histological analysis; type: organism-based; conditions: in vivo, 24 h
[9] = Absorption property of compound in poly-oxyethylene castor oil and PBS assessed as Q band maximum absorption wavelength by UV-visible spectrophotometric method; type: physicochemical; conditions: buffer
[10] = Phototoxicity in BALB/c nude mouse xenografted with QBC939 cells assessed as change in kidney at 1 mg/kg, iv followed by laser light irradiation at 120 J/cm2 measured after 1 day of light irradiation by H and E staining based histological analysis; type: organism-based; conditions: in vivo, 24 h
[11] = Phototoxicity in ICR mouse assessed as pathological changes 1 mg/kg, iv in presence of 10 mW/cm2 light irradiation for 10 mins at 1 day after drug challenge and measured after 1 day of light irradiation by H and E staining based microscopic analysis; type: organism-based; conditions: in vivo, 48 h, time 2 day
[12] = Induction of apoptosis in human QBC939 cells assessed as viable cells at 2 uM by annexin V-FITC and propidium iodide staining based flow cytometric analysis (reference value: 99.99 %); type: functional; conditions: read-out: Activity
QBC939 [13] = assay: Photodynamic antitumor activity against human QBC939 cells xenografted in BALB/c nude mouse assessed as decrease in tumor weight at 1 mg/kg, iv under dark condition measured after 13 days; type: functional, organism-based; conditions: time 13.0 day
[14] = Induction of apoptosis in human QBC939 cells assessed as viable cells at 2 uM in presence of 2J/cm2 light irradiation measured after 2 hrs by annexin V-FITC and propidium iodide staining based flow cytometric analysis (reference value: 99.6 %); type: functional; conditions: QBC939, light or radiation study, read-out: Activity
[15] = Induction of apoptosis in human QBC939 cells assessed as viable cells at 2 uM in presence of 2J/cm2 light irradiation measured after 24 hrs by annexin V-FITC and propidium iodide staining based flow cytometric analysis (reference value: 99.6 %); type: functional; conditions: QBC939, light or radiation study, read-out: Activity
[16] = Emission property of compound in poly-oxyethylene castor oil and PBS assessed as Q band emission wavelength by […]; type: physicochemical; conditions: buffer
[17] = Phototoxicity in BALB/c nude mouse xenografted with QBC939 cells assessed as change in heart at 1 mg/kg, iv followed by laser light irradiation at 120 J/cm2 measured after 1 day of light irradiation by H and E staining based histological analysis; type: organism-based; conditions: in vivo, 24 h
[18] = Drug localization in lysosome of human QBC939 cells at 4 uM incubated for 4 hrs in dark by lyso-tracker blue based confocal microscopic method; type: ADME, subcellular; conditions: qbc939, 4 h
[19] = Phototoxicity in BALB/c nude mouse xenografted with QBC939 cells assessed as change in lung at 1 mg/kg, iv followed by laser light irradiation at 120 J/cm2 measured after 1 day of light irradiation by H and E staining based histological analysis; type: organism-based; conditions: in vivo, 24 h
[20] = Drug uptake in mouse assessed as drug level in plasma at 1 mg/kg, iv measured upto 24 hrs by fluorometric method; type: ADME, organism-based; conditions: in vivo
[21] = Absorption property of the compound in DMF assessed as Q band log absorption coefficient by UV-visible spectrophotometric method; type: physicochemical
[22] = Phototoxicity against human QBC939 cells assessed as reduction in cell viability irradiated with 4 J/cm2 of 650 nanometer laser light preincubated for 24 hrs in dark and measured after 24 hrs by MTT assay; type: functional, cell-based; conditions: QBC939, light or radiation study
[23] = Phototoxicity against human QBC939 cells assessed as reduction in cell viability irradiated with 1 J/cm2 of 650 nanometer laser light preincubated for 24 hrs in dark and measured after 24 hrs by MTT assay; type: functional, cell-based; conditions: QBC939, light or radiation study
QBC939 [24] = assay: Photodynamic antitumour activity against human QBC939 cells xenografted in BABL/c nude mouse assessed as increase in apoptotic cells at 1 mg/kg, iv measured after 1 day of light irradiation by TUNEL assay; type: functional, organism-based
[25] = Phototoxicity in ICR mouse assessed as back skin weight at 1 mg/kg, iv followed by 10 mW/cm2 light irradiation for 10 mins at 1 day after drug challenge and measured after 1 day of light irradiation by H and E staining based microscopic analysis (reference value: 34.3 +/- 2.1 mg); type: organism-based; conditions: in vivo, 48 h, time 2 day
[26] = Induction of apoptosis in human QBC939 cells assessed as late apoptotic cells at 2 uM by annexin V-FITC and propidium iodide staining based flow cytometric analysis; type: functional
QBC939 [27] = assay: Photodynamic antitumor activity against human QBC939 cells xenografted in BALB/c nude mouse assessed as morphological change in tumor tissue at 1 mg/kg, iv followed by laser light irradiation at 120 J/cm2 measured after 1 day of light irradiation by H and E staining based histological analysis; type: functional, organism-based
[28] = Induction of apoptosis in human QBC939 cells assessed as necrotic cells at 2 uM in presence of 2J/cm2 light irradiation measured after 24 hrs by annexin V-FITC and propidium iodide staining based flow cytometric analysis (reference value: 0.02 %); type: functional
[29] = Induction of singlet oxygen generation in DMF solution irradiated with 650 nanometer laser light in every 1 min by ESR assay; type: functional
[30] = Drug uptake in nude mouse xenografted with QBC939 cells assessed as drug level in tumor tissue at 1 mg/kg, iv measured after 24 hrs by fluorescence imaging assay; type: ADME, organism-based, Neoplasm; conditions: in vivo
[31] = Absorption property of the compound in DMF assessed as Q band maximum absorption wavelength by UV-visible spectrophotometric method; type: physicochemical
[32] = Induction of apoptosis in human QBC939 cells assessed as necrotic cells at 2 uM in presence of 2J/cm2 light irradiation measured after 2 hrs by annexin V-FITC and propidium iodide staining based flow cytometric analysis (reference value: 0.02 %); type: functional

Drug uptake [1]: Active | Activity [6]: 650 nm | Activity [9]: 655 nm | Activity [16]: 654 nm | Drug uptake [18]: Active | Drug uptake [20]: Active | Activity [21]: 3.02 | Drug uptake [30]: Active | Activity [31]: 656 nm
SMILES: COC(=O)C1(C(=O)O)C2c3nc(c(-c4ccccc4)c4ccc([nH]4)c(-c4ccccc4)c4nc(c(-c5ccccc5)c5ccc([nH]5)c3-c3ccccc3)C=C4)C21 (configuration not stated)
Activity [2]: 3.6% | Activity [3]: 69.12% | Activity [4]: 10% | Activity [5]: 14.73% | Activity [7]: 23.2% | Activity [8]: Non-Toxic | Activity [10]: Non-Toxic | Activity [11]: Non-Toxic | viability at 2 µM [12]: 94.3% | Activity (QBC939 [13]): inactive | viability at 2 µM [14]: 51.3% | viability at 2 µM [15]: 2.1% | Activity [17]: Non-Toxic | Activity [19]: Non-Toxic | IC50 [22]: 780 nM | IC50 [23]: 1910 nM | Activity (QBC939 [24]): Active | Activity [25]: 35.1 mg | Activity [26]: 2.06% | Activity (QBC939 [27]): Active | Activity [28]: 7.79% | Activity [29]: Active | Activity [32]: 10.73%
